From US10213451B2, “Methods and compounds for modulating the secretion or expression of adhesion proteins or angiopoietins of cells” (PACIFIC ARROW LIMITED, priority 2004, dated 2019)
In brackets after ≈: the same amount, converted by molar mass.

Assays:
[1] = tested on: (Mouth) KB cells; assay: MTT assay KB; format: cell-based; conditions: Homo sapiens
[2] = tested on: OVCA 429; assay: MTT assay OVCA 429; format: cell-based; conditions: Homo sapiens, OVCA429; OVCA 429, Serous
Experimental: (§1) Majority of ovarian cancers arise from the surface epithelium of ovary, most of them belong to the histological subtypes of clear cell and serous carcinoma. We obtained 10 more human ovarian carcinoma cell-lines of these histological subtypes for these studies. The inhibition activity exerted by Xanifolia-Y was determined with MTT assay.

[3] = tested on: Caov 3; assay: MTT assay Caov 3; format: cell-based; conditions: Homo sapiens; Caov 3, Serous
Experimental: as §1

[4] = tested on: SKOV 3; assay: MTT assay SKOV 3; format: cell-based; conditions: Homo sapiens, SK-OV-3; SKOV 3, Serous
Experimental: as §1

[5] = tested on: Hey 8A; assay: MTT assay Hey 8A; format: cell-based, human
Experimental: as §1
(§2) Cells: Hey8A (human ovarian carcinoma cells) were grew in RPMI 1640 medium to 90% confluent before drug-treatment. Drug-treatment: Cells cultures were replaced with fresh RPMI medium containing either DMSO (as control) [D1]; or Xanifolia-Y (10, 15, or 20 ug/ml) [Y1, Y2 and Y3]. Aliquot of medium was removed as 0 hours sample and no FN was detected at this time. After 24 hours, aliquot of culture medium was taken out for Fibronectin determination (Western blot method). Cell viability at 24 hours was determined by MTT assay. Cultures were replaced with RPMI medium (5 ml) with MTT and incubated for an hour. The formation of formazan was dissolved in DMSO and OD at 570 nm was measured.

[6] = tested on: swelling of rats' feet induced by Carrageenin; assay: Carrageenin-induced swollen feet model; format: in vivo, SD rats;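 also: percent increase in foot volume over pre-inflammation volume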
Experimental: SD rats, male, weighing 163±18 g were used in the experiment. The tested animals are allowed to acclimate for a week. The rats drink water freely. The rats were randomly divided into 5 groups: control, positive control and 3 test groups, and each group had 8 rats. The dose for 3 groups of rats are 10, 20 and 40 mg/kg. Indometacin for the positive control is 10 mg/kg and fed once after modeling. The dose of CMC-Na for the control group is the same as each test group and fed into the stomach once a day before modeling for 5 days. The tested drug was fed into the stomach 10 minutes before the animal modeling (1 mL/100 g). The volumes of right foot of each rat were measured 0.5, 1, 2 and 4 hours before and after modeling. The volumes of the right hind feet were measured at a different time, 10 minutes after inflammation induced by subcutaneous injection (with syringe needle 7) of 0.05 mL of the 1% of Carrageenin/normal saline mixture into the feet. The Rate of swelling of the feet was calculated, compared with the controls and subject to a student t-test. Rate of swelling (E) (%)=Ltn−Lt0/Lt0×100% • Ltn: volume of foot after the inflammation • Lt0: volume of foot before the inflammation

[7] = tested on: Fibronectin secretion from Hey8A (human ovarian carcinoma cells); assay: Fibronectin secretion (Western blot), Hey8A cells; format: cell-based; conditions: 10 ug/ml, 24 hours
Experimental: Inhibition of Fibronectin secretion is physiological and the determination of its quantity is based on the following criteria: • 1. Fibronectin is secreted from viable cells. Only cell with over 85% viable cells after drug-treatment are employed in these experiments. The viable cells were determined by MTT assay. • 2. For comparison, the immuno-band intensity from each samples are normalized with cell mass. The cell mass was determined by the MTT assay and is assigned as a MTT unit for each cell sample.
as §2
Western Blot: Spent culture medium (0.6 ml) was mixed with SDS sample buffer (0.2 ml), boiled for 3 minutes before loading to SDS gel. Samples (60 ul/lane) were applied to a 6% SDS gel and electrophoresis was conducted with 100 volts for 2 hours. Protein was transferred to a nitrocellulose paper electrophoretically (30 min at 100 volts). The Western blot was incubated with the first antibody (mouse anti-FN, specific to human FN, SIGMA F0916) and second antibody (Anti-mouse IgG AP conjugated, Promega S3721). The immunobands were developed with BCIP/NBT color development system (Promega S3771).

[8] = tested on: OVCAR3 cells; assay: Apoptosis by flow cytometry of GFP-Annexin-V and propidium iodide; format: cell-based, human; conditions: 24 h after exposure
Experimental: Experiment of apoptosis of OVCAR3 cells after treatment with Xanifolia-Y was assessed with flow cytometry of GFP-Annexin-V and propidium iodide.

[9] = tested on: K562 cells membrane; assay: EM study of membrane structure; format: cell-based, human; conditions: 5 uM, 60 min
Text: Xanifolia-Y has a potent hemolytic activity in red blood cells (FIG. 27). To study the effect of Xanifolia-Y on membrane structure, the morphology of cell membrane treated with Xanifolia-Y was examined with EM. […] Solvent DMSO and AKOH-Y (a derivative of Xanifolia-Y without the angeloyl group and it has no activity) served as controls. Cells were negative stained with 1% UAc and subsequently examined with EM.

[10] = tested on: Hey8A cells inoculated into peritoneal cavity; assay: Nodule formation in peritoneal cavity, Hey8A; format: in vivo, nu/nu mice; conditions: 0.25 mg/kg i.p. daily 5 days per week for two-three weeks
Text: The relationship between the nodule formation and timelines during tumor progression are established. Usually, 4 to 6 nodules are formed during the entire period of tumor progression in this system (Lander Jr., et al., 2005). We start the drug-treatment at times equivalent to 20% and 50% of full tumor progression. At these times, the number of nodule is less and the size (weight) of the nodules is smaller. At the end of the drug-treatment, animals are euthanized and number of tumor nodules is determined and the tumor size (mass) is weighted.
Animals: 40 nu/nu mice are used per experiment.
2 groups of mice (20 each) (i) Drug-treatment start at time equivalent to 20% of full tumor progression (or on 4 days after tumor inoculation) (ii) Drug-treatment starts at time equivalent to 50% of full tumor progression (or on 10 days after tumor inoculation). On the day of starting drug-treatment, half of the animals (10) will be scarified and the number and weight of nodules will measured.
Drug-Treatments: Animals are administered daily for 5 days per week for two—three weeks. Dose: 0.25 mg/kg, through i.p. route.

C/C=C(/C)C(=O)O[C@H]1[C@H](OC(=O)/C(C)=C\C)[C@@]2(CO)C(CC1(C)C)C1=CCC3[C@@]4(C)CC[C@H](O[C@@H]5OC(C(=O)O)[C@@H](O)C(O[C@@H]6O[C@@H](CO)C(O)C6O)C5O[C@@H]5OC(CO)[C@H](O)C(O)C5O)C(C)(C)C4CC[C@@]3(C)[C@]1(C)[C@@H](O)[C@H]2O (stereo partly drawn) [Xanifolia-Y, 3-O-[β-D-galactopyranosyl (1→2)]-α-L-arabinofuranosy (1→3)-β-D-glucuronopyranosyl-21,22-O-diangeloyl-3β, 15α, 16α, 21β, 22α, 28-hexahydroxyolean-12-ene]
IC50 [1]: 6 µg/mL (≈ 5.26 µM)
IC50 [2]: 7 µM
IC50 [3]: 7 µM
IC50 [4]: 10.5 µM
state of cells after drug-treatment ([5]; Hey8A, 15 ug/ml and 20 ug/ml, 24 hours): found dead (floating)
activity at 10 µg/mL ([5]; Homo sapiens, Hey8A, 10 ug/ml, 24 hours, read-out: growth of cells, % of control (MTT)): 83%
IC50 ([5]; Homo sapiens, Hey 8A, Serous): 10.5 µM
Swelling rate after administration (%) ([6]; 10 mg/kg, 0.5 hour): 16.7%
Swelling rate after administration (%) ([6]; 10 mg/kg, 1 hour): 18.5%
Swelling rate after administration (%) ([6]; 10 mg/kg, 2 hours): 16.0%
Swelling rate after administration (%) ([6]; 10 mg/kg, 4 hours): 10.5%
Swelling rate after administration (%) ([6]; 20 mg/kg, 0.5 hour): 10.5%
Swelling rate after administration (%) ([6]; 20 mg/kg, 1 hour): 13.6%
Swelling rate after administration (%) ([6]; 20 mg/kg, 2 hours): 12.4%
Swelling rate after administration (%) ([6]; 20 mg/kg, 4 hours): 8.5%
Swelling rate after administration (%) ([6]; 40 mg/kg, 0.5 hour): 10.3%
Swelling rate after administration (%) ([6]; 40 mg/kg, 1 hour): 12.6%
Swelling rate after administration (%) ([6]; 40 mg/kg, 2 hours): 12.5%
Swelling rate after administration (%) ([6]; 40 mg/kg, 4 hours): 6.5%
Fibronectin secreted as compared with the DMSO control [7]: 31%
average band intensity after corrected with the MTT unit [7]: 366
inhibition at 10 µg/mL ([7]; Homo sapiens, Ovarian carcinoma cell): 69%
form of cell death induced [8]: apoptosis is a major form of cell death
membrane morphology (EM) [9]: patches of pits were found in the membrane
numbers of tumor nodules [10]: less
size of tumor [10]: smaller
